Data: patent US20240425478A1, “CYCLOPENTYLPYRAZOLE CDK2 INHIBITORS” (Genentech, Inc., priority 2021, published 2024)
pIC50, pKi: −log10 of the molar value. Read-outs that look alike come from different tables or passages of the source.

Columns and labels:
[1] = biological target: T1, Cyclin Dependent Kinase 1/Cyclin A2 (CDK1-cycA2) (Homo sapiens, UniProt P06493); assay: CDK1-cycA2 TR-FRET (Lance) enzyme assay; assay type: biochemical; conditions: for pKi: enzymatic assay
T1 construct: purchased ProQinase 0134-0054-1
Method in brief: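 TR-FRET (Lance) detection of phospho-4E-BP1 with a europium-labelled antibody after EDTA quench (15 mM final); signal taken as acceptor/donor ratio. Enzyme and compound were pre-incubated 30 min in HEPES pH 7.5 buffer with MgCl2, TCEP, BGG and Brij 35. Ki derived by Morrison fit.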

[2] = biological target: T2, Cyclin Dependent Kinase 2/Cyclin E1 (CDK2-cycE1) (Homo sapiens, UniProt P24941); assay: CDK2-cycE1 TR-FRET (LANCE) enzyme assay; assay type: biochemical; conditions: for FS CDK1/CDK2 / FS CDK4/CDK2: fold selectivity; for increased fold-selectivity CDK4/CDK2 over Comparator C: (+) sign after FS CDK4/CDK2;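 for improvement in potency against CDK2 (Ki) over Comparator C: fold lower CDK2 Ki than comparator c (Ki 0.032 µM)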
T2 construct: purchased ProQinase 0050-0055-1
Method in brief: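 Kinase reaction buffer: 50 mM HEPES pH 7.5, 10 mM MgCl2, 2 mM TCEP, 0.05% BGG, 0.01% Brij 35, with 30 min compound–enzyme pre-incubation.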

[3] = biological target: T3, Cyclin Dependent Kinase 4/Cyclin D3 (CDK4-cycD3) (Homo sapiens, UniProt P11802); assay: CDK4-cycD3 TR-FRET (LANCE) enzyme assay; assay type: biochemical; conditions: for pKi: enzymatic assay
T3 construct: purchased Carna Biosciences 04-105
Method in brief: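 Compound dose responses pre-incubated 30 min with enzyme mix in 50 mM HEPES pH 7.5, 10 mM MgCl2, 2 mM TCEP, 0.05% BGG, 0.01% Brij 35. Reaction quenched with EDTA (15 mM final); Eu-anti-phospho-4E-BP1 TR-FRET detection, acceptor/donor ratio. Ki derived by Morrison equation.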

[4] = tested on: OVISE (JCRB1043, CCNE1-amplified); assay: OVISE EdU incorporation cell proliferation assay (CDK2-dependent); assay type: cell-based; conditions: for pIC50: cellular assay, read-out: CDK2 OVISE IC50; for FS SKOV-3/OVISE: fold selectivity; for increased fold-selectivity SKOV-3/OVISE over Comparator C: (+) sign after FS SKOV-3/OVISE; for improvement in CDK2 OVISE cell potency over Comparator C: in brackets after OVISE IC50, Comparator C 5.5 μM
Method in brief: (§1)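 EdU incorporation (0.5 μM final, last 8 h) follows a 16 h compound exposure at 37 °C, 5% CO2 in RPMI plus 10% FBS, 0.5% DMSO. After fixation, imaging scores EdU-positive cells; a 4-parameter logistic fit of that fraction gives IC50.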

[5] = tested on: SKOV-3 (ATCC HTB-77); assay: SKOV-3 EdU incorporation cell proliferation assay (CDK4/6-dependent); assay type: cell-based; conditions: for pIC50: Homo sapiens, cellular assay, read-out: CDK4/6 SKOV-3 IC50
Method in brief: as §1

[6] = Table O, enzymatic assay, read-out: CDK2 Ki
[7] = Table O, enzymatic CDK1 Ki over CDK2 Ki
[8] = Table O, enzymatic CDK4 Ki over CDK2 Ki
[9] = Table O, cellular SKOV-3 IC50 over OVISE IC50
[10] = Table Q, enzymatic assay, read-out: CDK2 Ki
[11] = Table S, fold selectivity, enzymatic Ki ratio

T3 sequence (P11802 whole entry): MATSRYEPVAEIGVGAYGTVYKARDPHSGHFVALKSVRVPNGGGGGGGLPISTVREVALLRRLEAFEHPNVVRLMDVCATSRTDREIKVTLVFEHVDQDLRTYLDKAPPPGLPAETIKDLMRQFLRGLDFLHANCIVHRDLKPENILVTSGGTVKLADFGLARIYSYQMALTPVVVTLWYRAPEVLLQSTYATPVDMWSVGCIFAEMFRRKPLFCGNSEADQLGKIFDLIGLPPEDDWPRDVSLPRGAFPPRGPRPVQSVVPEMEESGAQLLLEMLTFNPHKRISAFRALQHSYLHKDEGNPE
T3 sequence (P30281 whole entry partner): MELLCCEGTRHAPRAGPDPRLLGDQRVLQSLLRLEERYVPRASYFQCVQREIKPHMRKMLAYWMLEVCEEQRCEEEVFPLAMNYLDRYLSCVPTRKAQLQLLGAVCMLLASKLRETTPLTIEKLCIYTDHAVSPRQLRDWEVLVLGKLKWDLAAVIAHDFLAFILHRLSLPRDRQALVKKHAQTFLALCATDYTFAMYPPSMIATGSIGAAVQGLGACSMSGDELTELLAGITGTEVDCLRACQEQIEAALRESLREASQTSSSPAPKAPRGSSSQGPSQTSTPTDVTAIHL
T1 sequence (P06493 whole entry): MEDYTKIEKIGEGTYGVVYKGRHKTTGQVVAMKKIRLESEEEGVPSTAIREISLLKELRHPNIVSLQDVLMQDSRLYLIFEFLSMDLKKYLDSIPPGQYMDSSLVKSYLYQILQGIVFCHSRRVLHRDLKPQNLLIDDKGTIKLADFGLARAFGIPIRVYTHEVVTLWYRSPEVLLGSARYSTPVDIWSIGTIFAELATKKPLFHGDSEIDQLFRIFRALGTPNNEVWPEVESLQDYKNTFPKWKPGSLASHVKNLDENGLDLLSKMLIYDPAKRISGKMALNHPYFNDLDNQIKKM
T1 sequence (P20248 whole entry partner): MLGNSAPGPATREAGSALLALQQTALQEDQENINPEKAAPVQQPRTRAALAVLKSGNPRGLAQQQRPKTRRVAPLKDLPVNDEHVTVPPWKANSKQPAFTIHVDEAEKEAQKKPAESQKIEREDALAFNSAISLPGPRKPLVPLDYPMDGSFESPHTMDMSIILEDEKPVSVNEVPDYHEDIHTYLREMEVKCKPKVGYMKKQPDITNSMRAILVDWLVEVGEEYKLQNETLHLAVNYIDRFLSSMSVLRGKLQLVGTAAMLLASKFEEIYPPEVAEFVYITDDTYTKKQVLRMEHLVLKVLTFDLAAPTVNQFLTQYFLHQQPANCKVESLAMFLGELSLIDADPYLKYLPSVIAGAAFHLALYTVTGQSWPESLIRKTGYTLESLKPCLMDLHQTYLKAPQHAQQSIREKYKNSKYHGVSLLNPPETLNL

SMILES | pKi ([1]; Table O) | pKi [2, 6] | FS CDK1/CDK2 [2, 7] | FS CDK4/CDK2 [2, 8] | pKi ([3]; Table O) | pIC50 ([5]; SK-OV-3, Table O) | pIC50 ([4]; Table O) | FS SKOV-3/OVISE [4, 9] | further results
CC(C)NC(=O)O[C@@H]1CC[C@H](c2cc(Nc3ccn(C)c(=O)c3)n[nH]2)C1 [Example 2AA, (1R,3S)-3-(3-((1-methyl-2-oxo-1,2-dihydropyridin-4-yl)amino)-1H-pyrazol-5-y1)cyclopenty1 isopropylcarbamate] | 6.36 | 7.77 | 26 | 26 | 6.35 | < 4.70 | 5.39 | >49 | increased fold-selectivity CDK4/CDK2 over Comparator C ([2]; Table Q): (+) (The (+) sign in Table Q signifies desirable increased fold-selectivity of the exemplary compounds over Comparator C); pKi [2, 10]: 7.77; FS CDK1/CDK2 ([2]; Table Q, enzymatic): 26; FS CDK4/CDK2 ([2]; Table Q, enzymatic): 26; improvement in potency against CDK2 (Ki) over Comparator C ([2]; Table Q, in brackets after CDK2 Ki, Comparator C 0.032 μM): 1.9 fold; increased fold-selectivity SKOV-3/OVISE over Comparator C ([4]; Table Q): (+) (The (+) sign in Table Q signifies desirable increased fold-selectivity of the exemplary compounds over Comparator C); FS SKOV-3/OVISE ([4]; Table Q, cellular): > 4.9; improvement in CDK2 OVISE cell potency over Comparator C ([4]; Table Q): 1.3 fold; pIC50 ([5]; SK-OV-3, Table Q): < 4.70
CC(C)NC(=O)O[C@@H]1CC[C@H](c2cc(Nc3ccc(-n4cccn4)nc3)n[nH]2)C1 [Example 2D, (1R,3S)-3-(3-((6-(1H-pyrazol-1-yl)pyridin-3-yl)amino)-1H-pyrazol-5-yl)cyclopentyl isopropylcarbamate] | 6.46 | 7.85 | 25 | 34 | 6.32 | 4.85 | 6.15 | 20 | improvement in potency against CDK2 (Ki) over Comparator C [2]: 2.3 fold; increased fold-selectivity CDK4/CDK2 over Comparator C ([2]; Table Q): (+) (The (+) sign in Table Q signifies desirable increased fold-selectivity of the exemplary compounds over Comparator C); pKi [2, 10]: 7.85; FS CDK1/CDK2 ([2]; Table Q, enzymatic): 25; FS CDK4/CDK2 ([2]; Table Q, enzymatic): 34; increased fold-selectivity SKOV-3/OVISE over Comparator C ([4]; Table Q): (+) (The (+) sign in Table Q signifies desirable increased fold-selectivity of the exemplary compounds over Comparator C); FS SKOV-3/OVISE ([4]; Table Q, cellular): 20; improvement in CDK2 OVISE cell potency over Comparator C ([4]; Table Q): 7.9 fold; pIC50 ([5]; SK-OV-3, Table Q): 4.85
COc1cc(=O)n(C)cc1Nc1cc([C@H]2CC[C@@H](OC(=O)NC34CC(C3)C4)C2)[nH]n1 [Example 10, (1R,3S)-3-(3-((4-methoxy-1-methyl-6-oxo-1,6-dihydropyridin-3-yl)amino)-1H-pyrazol-5-yl)cyclopentyl bicyclo[1.1.1]pentan-1-ylcarbamate] | 5.29 | 6.89 | 39 | 385 | < 4.30 | < 4.70 | 4.80 | >1.3 | 
COCCn1nc(Nc2cc([C@H]3CC[C@@H](OC(=O)NC(C)C)C3)[nH]n2)ccc1=O [Example 2II, (1R,3S)-3-(3-((1-(2-methoxyethyl)-6-oxo-1,6-dihydropyridazin-3-y1)amino)-1H-pyrazol-5-y1)cyclopentyl isopropylcarbamate] | 6.96 | 8.02 | 11 | 99 | 6.02 | < 4.70 | 5.59 | >7.7 | 
Cc1ncc(Nc2cc([C@H]3CC[C@@H](OC(=O)NC(C)C)C3)[nH]n2)c(C)n1 [Example 2W, (1R,3S)-3-(3-((2,4-dimethylpyrimidin-5-yl)amino)-1H-pyrazol-5-y1)cyclopentyl isopropylcarbamate] | 5.96 | 7.38 | 26 | 74 | 5.51 | < 4.70 | 5.57 | >7.4 | improvement in potency against CDK2 (Ki) over Comparator C [2]: 0.8 fold; increased fold-selectivity CDK4/CDK2 over Comparator C ([2]; Table Q): (+) (The (+) sign in Table Q signifies desirable increased fold-selectivity of the exemplary compounds over Comparator C); pKi [2, 10]: 7.38; FS CDK1/CDK2 ([2]; Table Q, enzymatic): 26; FS CDK4/CDK2 ([2]; Table Q, enzymatic): 74; increased fold-selectivity SKOV-3/OVISE over Comparator C ([4]; Table Q): (+) (The (+) sign in Table Q signifies desirable increased fold-selectivity of the exemplary compounds over Comparator C); FS SKOV-3/OVISE ([4]; Table Q, cellular): > 7.4; improvement in CDK2 OVISE cell potency over Comparator C ([4]; Table Q): 2 fold; pIC50 ([5]; SK-OV-3, Table Q): < 4.70
CC(C)(C)NC(=O)O[C@@H]1CC[C@H](c2cc(Nc3ccccc3)n[nH]2)C1 [Comparator E, (1R,3S)-3-(3-(phenylamino)-1H-pyrazol-5-yl)cyclopentyl tert-butylcarbamate, reference compound] |  |  |  |  |  |  |  |  | pKi ([1]; Table S): 7.48; FS CDK1/CDK2 [1, 11]: 63; pKi ([2]; Table S, enzymatic assay, read-out: CDK2 Ki): 9.28; pKi ([2]; read-out: CDK2 activity / potency (enzymatic assay)): 9.28; pKi ([3]; Table S): 7.64; FS CDK4/CDK2 [3, 11]: 44; pIC50 ([4]; Table S): 6.77; pIC50 ([5]; SK-OV-3, Table S): 5.57; FS SKOV-3/OVISE ([5]; Table S, fold selectivity, cellular IC50 ratio): 16

More lines, main results first:

pKi ([1]; Table O) | pKi [2, 6] | FS CDK1/CDK2 [2, 7] | FS CDK4/CDK2 [2, 8] | pKi ([3]; Table O) | pIC50 ([5]; SK-OV-3, Table O) | SMILES | pIC50 ([4]; Table O) | FS SKOV-3/OVISE [4, 9] | further results
6.47 | 7.92 | 28 | 500 | 5.22 | < 4.70 | Cc1cc(Nc2cc([C@H]3CC[C@@H](OC(=O)NC45CC(C4)C5)C3)[nH]n2)c(C)nn1 [Example 9D, (1R,3S)-3-(3-((3,6-dimethylpyridazin-4-yl)amino)-1H-pyrazol-5-yl)cyclopentyl bicyclo[1.1.1]pentan-1-ylcarbamate] | 5.30 | >4 | 
5.46 | 6.59 | 13 | 16 | 5.38 | < 4.70 | Cc1ncccc1Nc1cc([C@H]2CC[C@@H](OC(=O)N[C@H]3CCN(C)C3)C2)[nH]n1 [Example 7C, (1R,3S)-3-(3-((2-methylpyridin-3-yl)amino)-1H-pyrazol-5-yl)cyclopentyl ((S)-1-methylpyrrolidin-3-yl)carbamate] | 5.10 | >2.5 | 
6.51 | 7.59 | 12 | 20 | 6.29 | < 4.70 | C[C@@H](NC(=O)O[C@@H]1CC[C@H](c2cc(Nc3cccnn3)n[nH]2)C1)C(F)(F)F (single isomer, unassigned) [Example 5B] | 5.54 | >6.9 | 
6.30 | 7.74 | 28 | 24 | 6.37 | 4.92 | CC[C@@H](C)NC(=O)O[C@@H]1CC[C@H](c2cc(Nc3cccnn3)n[nH]2)C1 (single isomer, unassigned) [Example 3C] | 6.41 | 31 | 
6.11 | 7.92 | 64 | 110 | 5.89 | 4.82 | Cc1cnccc1Nc1cc([C@H]2CC[C@@H](OC(=O)NC34CC(C3)C4)C2)[nH]n1 [Example 9G, (1R,3S)-3-(3-((3-methylpyridin-4-yl)amino)-1H-pyrazol-5-yl)cyclopentyl bicyclo[1.1.1]pentan-1-ylcarbamate] | 6.47 | 44 | 
5.77 | 7.20 | 27 | 33 | 5.68 | < 4.70 | C[C@H](NC(=O)O[C@@H]1CC[C@H](c2cc(Nc3cccnn3)n[nH]2)C1)C(F)(F)F (single isomer, unassigned) [Example 5A] | 5.66 | >9 | 
